Values quoted from earlier work in article PMC4512625, “Critical role of the SPAK protein kinase CCT domain in controlling blood pressure” (Human Molecular Genetics, 2015).

How the values were obtained:
[1] = test system: NKCC1 in the hypothalamic paraventricular nucleus; conditions: intracranial administration, spontaneously hypertensive rats
Description: The altered shape of the arterial pressure waveform in our […] mice (Fig. 5B) is consistent with increased vascular compliance and reduced wave reflection in the periphery as compared with the wild-type animals. This may be explained in part by a diminished cardiac output arising from possible reductions in cardiac contractility owing to loss of NKCC1 activity in the heart ([49]) (Fig. 2B) and the lower heart rates of the […] mice (Fig. 5A), because augmentation is negatively correlated with heart rate in humans ([50]). It has also been previously shown that […] ...

[2] = test system: human OSR1 CCT domain, Leu473 to Ala; conditions: mutant versus wild type
Description: Consistent with this, mutation of Leu473 to Ala reduced binding of OSR1 to RFXI WNK4 peptide over 100-fold ([40]).

| Compound | heart rate [1] | sympathetic vasomotor tone [1] | reduction of binding of OSR1 to RFXI WNK4 peptide by mutation of Leu473 to Ala [2] |
| --- | --- | --- | --- |
| CCCCNc1cc(C(=O)O)cc(S(N)(=O)=O)c1Oc1ccccc1 [bumetanide] | lower their heart rates | reduce sympathetic vasomotor tone | – |
| GRFQVT [RFXI WNK4 peptide, RFXI motif-containing peptide derived from WNK4, complexed to the human OSR1 CCT domain] | – | – | over 100 fold |
